Test results: patent US20240092773A1, “DIHYDRO-CYCLOPENTA-ISOQUINOLINE SULFONAMIDES DERIVATIVES” (UCB Biopharma SRL, priority 2019, published 2024)

Biological target: IgE-Tb binding to soluble IgE receptor FcεR1α (Y131A mutation) (Homo sapiens, UniProt P01854, N146Q/N252Q)
Assay: In vitro FRET assay: inhibition of binding of IgE-Tb to receptor FcεR1α-Y131A-AF488
Conditions: read-out: FRET IC50 range

IgE-Tb binding to soluble IgE receptor FcεR1α (Y131A mutation), sequence (P01854 whole entry N146Q/N252Q, looked up): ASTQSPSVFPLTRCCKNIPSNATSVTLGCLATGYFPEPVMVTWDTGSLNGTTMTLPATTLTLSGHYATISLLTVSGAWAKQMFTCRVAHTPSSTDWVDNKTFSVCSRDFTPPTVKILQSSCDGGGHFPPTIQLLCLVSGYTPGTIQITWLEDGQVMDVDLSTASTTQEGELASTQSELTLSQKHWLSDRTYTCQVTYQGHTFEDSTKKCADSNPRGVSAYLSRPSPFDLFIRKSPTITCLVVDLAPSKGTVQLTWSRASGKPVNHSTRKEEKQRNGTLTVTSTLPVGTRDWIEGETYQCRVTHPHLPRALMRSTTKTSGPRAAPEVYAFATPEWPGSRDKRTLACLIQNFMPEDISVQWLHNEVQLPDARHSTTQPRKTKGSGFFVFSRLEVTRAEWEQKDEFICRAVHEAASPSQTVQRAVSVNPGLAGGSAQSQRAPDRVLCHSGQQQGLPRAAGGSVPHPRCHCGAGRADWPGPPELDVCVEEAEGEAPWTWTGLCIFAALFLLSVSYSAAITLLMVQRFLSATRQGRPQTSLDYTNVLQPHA

`CNC(=O)[C@H]1CCCN1[C@@H]1CCc2c1cc(S(=O)(=O)NCC(C)(C)F)c1cc(C3CC3)ncc21` (relative stereo) [Example 58, (2R)-1-[(7R*)-3-cyclopropyl-5-[(2-fluoro-2-methylpropyl)sulfamoyl]-8,9-dihydro-7H-cyclopenta[h]isoquinolin-7-yl]-N-methylpyrrolidine-2-carboxamide] was tested. Which IC50 did it give?
The IC50 was 0.1 to 2 µM.

How did the IC50 turn out when `CC(C)(F)CNS(=O)(=O)c1cc2c(c3cnc(C4CC4)cc13)CC[C@H]2NC(=O)NCC1CC1` (single isomer, unassigned) [Example 8, 1-(cyclopropylmethyl)-3-[(7R*)-3-cyclopropyl-5-[(2-fluoro-2-methylpropyl)sulfamoyl]-8,9-dihydro-7H-cyclopenta[h]isoquinolin-7-yl]urea] was run?
The IC50 was 0.1 to 2 µM.

With `CC(C)(F)CNS(=O)(=O)c1cc2c(c3cnc(C4CC4)cc13)CC[C@@H]2NC(=O)c1cccnc1` (single isomer, unassigned) [Example 9, N-[(7R*)-3-cyclopropyl-5-[(2-fluoro-2-methylpropyl)sulfamoyl]-8,9-dihydro-7H-cyclopenta[h]isoquinolin-7-yl]pyridine-3-carboxamide] as the compound, how does the IC50 read?
Its IC50 is 0.1 to 2 µM.

Which IC50 does the source give for `CC(C)(F)CNS(=O)(=O)c1cc2c(c3cnc(C4CC4)cc13)CC[C@H]2n1ccnc1NCC1CC1` (single isomer, unassigned) [Example 12, (7R*)-3-cyclopropyl-7-[2-(cyclopropylmethylamino)imidazol-1-yl]-N-(2-fluoro-2-methylpropyl)-8,9-dihydro-7H-cyclopenta[h]isoquinoline-5-sulfonamide] here?
The IC50 was 0.1 to 2 µM.

For `CC(C)(F)CNS(=O)(=O)c1cc2c(c3cnc(C4CC4)cc13)CC[C@H]2Nc1nccn1CC1CC1` (single isomer, unassigned) [Example 13, (7R*)-3-cyclopropyl-7-[[1-(cyclopropylmethyl)imidazol-2-yl]amino]-N-(2-fluoro-2-methylpropyl)-8,9-dihydro-7H-cyclopenta[h]isoquinoline-5-sulfonamide], which IC50 is on record?
The IC50 was 0.1 to 2 µM.

Which IC50 does the source give for `CC(C)(F)CNS(=O)(=O)c1cc2c(c3cnc(C4CC4)cc13)[C@H](NC(=O)c1c[nH]c3cc(F)ccc13)CC2` (single isomer, unassigned) [Example 16, 6-fluoro-N-[(9R*)-3-cyclopropyl-5-[(2-fluoro-2-methylpropyl)sulfamoyl]-8,9-dihydro-7H-cyclopenta[h]isoquinolin-9-yl]-1H-indole-3-carboxamide] here?
Its IC50 is 0.1 to 2 µM.

For `Cc1cc(C(=O)N[C@@H]2CCc3cc(S(=O)(=O)NCC(C)C)c4cc(C5CC5)ncc4c32)n[nH]1` (single isomer, unassigned) [Example 20, 5-methyl-N-[(9R*)-3-cyclopropyl-5-(2-methylpropylsulfamoyl)-8,9-dihydro-7H-cyclopenta[h]isoquinolin-9-yl]-1H-pyrazole-3-carboxamide], which IC50 is on record?
Its IC50 is 0.1 to 2 µM.

For `CC(C)CNS(=O)(=O)c1cc2c(c3cnc(C4CC4)cc13)[C@H](NC(=O)c1cccnc1)CC2` (single isomer, unassigned) [Example 21, N-[(9R*)-3-cyclopropyl-5-(2-methylpropylsulfamoyl)-8,9-dihydro-7H-cyclopenta[h]isoquinolin-9-yl]pyridine-3-carboxamide], which IC50 is on record?
The IC50 was 0.01 to 0.05 µM.

How did the IC50 turn out when `Cc1cc(Nc2nncn2[C@H]2CCc3c2cc(S(=O)(=O)NCC(C)(C)F)c2cc(C4CC4)nnc32)n(C)n1` (single isomer, unassigned) [Example 25, (7R*)-3-cyclopropyl-7-[3-[(2,5-dimethylpyrazol-3-yl)amino]-1,2,4-triazol-4-yl]-N-(2-fluoro-2-methylpropyl)-8,9-dihydro-7H-cyclopenta[h]cinnoline-5-sulfonamide] was run?
Its IC50 is 0.05 to 0.1 µM.

With `CC(C)(F)CNS(=O)(=O)c1cc2c(c3cnc(C4CC4)cc13)CC[C@H]2C(=O)Nc1cccnc1` (single isomer, unassigned) [Example 37, (7R*)-3-cyclopropyl-5-[(2-fluoro-2-methylpropyl)sulfamoyl]-N-pyridin-3-yl-8,9-dihydro-7H-cyclopenta[h]isoquinoline-7-carboxamide] as the compound, how does the IC50 read?
The IC50 was 0.1 to 2 µM.

`CCNc1nncn1C1CCc2c1cc(S(=O)(=O)NCC(C)C)c1cc(C3CC3)ncc21` (single isomer, unassigned) [Example 52, (7R*)-3-cyclopropyl-7-[3-(ethylamino)-1,2,4-triazol-4-yl]-N-(2-methylpropyl)-8,9-dihydro-7H-cyclopenta[h]isoquinoline-5-sulfonamide] was tested. Which IC50 did it give?
Its IC50 is 0.01 to 0.05 µM.

How did the IC50 turn out when `CCNc1c(NC2CCc3c2cc(S(=O)(=O)NCC(C)C)c2cc(C4CC4)ncc32)c(=O)c1=O` (single isomer, unassigned) [Example 53, (7R*)-3-cyclopropyl-7-[[2-(ethylamino)-3,4-dioxocyclobuten-1-yl]amino]-N-(2-methylpropyl)-8,9-dihydro-7H-cyclopenta[h]isoquinoline-5-sulfonamide] was run?
The IC50 was 0.01 to 0.05 µM.

`CC(C)(F)CNS(=O)(=O)c1cc2c(c3cnc(C4CC4)cc13)CC[C@@H]2NC(=O)C1CN(C(=O)OC(C)(C)C)C1` (single isomer, unassigned) [Example 56, tert-butyl 3-[[(7R*)-3-cyclopropyl-5-[(2-fluoro-2-methylpropyl)sulfamoyl]-8,9-dihydro-7H-cyclopenta[h]isoquinolin-7-yl]carbamoyl]azetidine-1-carboxylate] was tested. Which IC50 did it give?
Its IC50 is 0.1 to 2 µM.

How did the IC50 turn out when `CCn1cnnc1NC1CCc2cc(S(=O)(=O)NCC(C)C)c3cc(C4CC4)ncc3c21` (single isomer, unassigned) [Example 73, (9R*)-3-cyclopropyl-9-[(4-ethyl-1,2,4-triazol-3-yl)amino]-N-(2-methylpropyl)-8,9-dihydro-7H-cyclopenta[h]isoquinoline-5-sulfonamide] was run?
Its IC50 is 0.01 to 0.05 µM.

`CCNc1c(N[C@@H]2CCc3cc(S(=O)(=O)NCC(C)C)c4cc(C5CC5)ncc4c32)c(=O)c1=O` (single isomer, unassigned) [Example 79, (9R*)-3-cyclopropyl-9-[[2-(ethylamino)-3,4-dioxocyclobuten-1-yl]amino]-N-(2-methylpropyl)-8,9-dihydro-7H-cyclopenta[h]isoquinoline-5-sulfonamide] was tested. Which IC50 did it give?
The IC50 was 0.01 to 0.05 µM.

With `CC(C)CNS(=O)(=O)c1cc2c(c3cnc(C4CC4)cc13)[C@@H](Nc1nc3ccccc3[nH]1)CC2` (single isomer, unassigned) [Example 80, (9R*)-9-(1H-benzimidazol-2-ylamino)-3-cyclopropyl-N-(2-methylpropyl)-8,9-dihydro-7H-cyclopenta[h]isoquinoline-5-sulfonamide] as the compound, how does the IC50 read?
Its IC50 is 0.01 to 0.05 µM.

`Cc1cc(Nc2nncn2[C@H]2CCc3c2cc(S(=O)(=O)NCC(C)(C)F)c2cc(C4CC4)ncc32)n(C)n1` (single isomer, unassigned) [Example 86, (7R*)-3-cyclopropyl-7-[3-[(2,5-dimethylpyrazol-3-yl)amino]-1,2,4-triazol-4-yl]-N-(2-fluoro-2-methylpropyl)-8,9-dihydro-7H-cyclopenta[h]isoquinoline-5-sulfonamide] was tested. Which IC50 did it give?
The IC50 was 0.05 to 0.1 µM.

How did the IC50 turn out when `Cc1cc(Nc2nncn2[C@@H]2CCc3c2cc(S(=O)(=O)NCC(C)C)c2cc(C4CC4)ncc32)n(C)n1` (single isomer, unassigned) [Example 87, (7R*)-3-cyclopropyl-7-[3-[(2,5-dimethylpyrazol-3-yl)amino]-1,2,4-triazol-4-yl]-N-(2-methylpropyl)-8,9-dihydro-7H-cyclopenta[h]isoquinoline-5-sulfonamide] was run?
Its IC50 is 0.01 to 0.05 µM.
